Laboratory results reported in ChEMBL document CHEMBL1201862, “PubChem BioAssay data set” (2004).
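Cells were grown in 96-well plates and exposed to each compound for 48 hours at five concentrations; endpoints were interpolated linearly between bracketing concentrations, or set to the highest concentration if not reached. GI50 is the concentration that inhibits growth by half.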 The source made the active and inactive calls. Cut-off read from the data, not from the text of the source: active = GI50 up to about 1.1 µM and inactive = higher.

Key:
Test in all cases: growth of human tumour cells (NCI), 48 h
ACHN = tested on: ACHN
COLO 205 = tested on: COLO 205
EKVX = tested on: EKVX
HCC 2998 = tested on: HCC 2998
HCT-116 = tested on: HCT-116
IGROV-1 = tested on: IGROV-1
LXFL 529 = tested on: LXFL 529
NCI-H226 = tested on: NCI-H226
NCI-H23 = tested on: NCI-H23
NCI-H460 = tested on: NCI-H460
NCI-H522 = tested on: NCI-H522
OVCAR-3 = tested on: OVCAR-3
RPMI-8226 = tested on: RPMI-8226
SF-295 = tested on: SF-295
SK-MEL-5 = tested on: SK-MEL-5
SN12C = tested on: SN12C
SW-620 = tested on: SW-620
TK-10 = tested on: TK-10

Measured: GI50

COC(=O)[C@H]1C2CC[C@@H]3C45C[C@@H](c6ccoc6)O[C@@H]4O[C@@H](O2)C31CCC5C (some centres not stated)
inactive: ACHN > 100 µM | COLO 205 > 100 µM | EKVX 92.3 µM | HCC 2998 95.9 µM | HCT-116 > 100 µM | IGROV-1 > 100 µM | LXFL 529 57.7 µM | NCI-H226 76.7 µM | NCI-H23 > 100 µM | NCI-H460 > 100 µM | NCI-H522 91.6 µM | OVCAR-3 > 100 µM | RPMI-8226 > 100 µM | SF-295 97.5 µM | SK-MEL-5 > 100 µM | SN12C > 100 µM | SW-620 > 100 µM | TK-10 > 100 µM

C=C1C(=O)OC2/C=C(\C)C(O)/C=C\C(C)(O)CC(OC(=O)/C(C)=C/C)C12 (configuration not stated)
inactive: ACHN 22.4 µM | COLO 205 15.3 µM | EKVX 30.1 µM | HCC 2998 > 100 µM | HCT-116 16.3 µM | IGROV-1 > 100 µM | LXFL 529 15.3 µM | NCI-H226 > 100 µM | NCI-H23 39.8 µM | NCI-H460 > 61 µM | NCI-H522 12.8 µM | OVCAR-3 9.93 µM | RPMI-8226 > 39.5 µM | SF-295 > 100 µM | SK-MEL-5 51.3 µM | SN12C 22 µM | SW-620 17.3 µM | TK-10 > 48.4 µM

CC(C)C(NCc1c2ccccc2[n+]([O-])c2ccccc12)C(=O)O (configuration not stated)
inactive: ACHN 42.3 µM | COLO 205 > 100 µM | EKVX > 100 µM | HCC 2998 > 100 µM | HCT-116 25.3 µM | IGROV-1 89.1 µM | LXFL 529 35.1 µM | NCI-H226 35.4 µM | NCI-H23 44.1 µM | NCI-H460 68.9 µM | NCI-H522 34.5 µM | OVCAR-3 93.1 µM | RPMI-8226 28.2 µM | SF-295 > 100 µM | SK-MEL-5 46.5 µM | SN12C 44.8 µM | SW-620 48.6 µM | TK-10 > 100 µM

CCOC(=O)CC(NCc1ccc(/N=C/c2nc3ccc(C(F)(F)F)cc3nc2-c2ccccc2)cc1)C(=O)OCC (configuration not stated)
inactive: ACHN > 58.6 µM | COLO 205 > 100 µM | EKVX > 69.5 µM | HCC 2998 27 µM | HCT-116 > 55.5 µM | IGROV-1 > 63.1 µM | LXFL 529 > 100 µM | NCI-H226 > 100 µM | NCI-H23 > 57.3 µM | NCI-H460 > 100 µM | NCI-H522 > 100 µM | OVCAR-3 > 100 µM | RPMI-8226 > 100 µM | SF-295 27.2 µM | SK-MEL-5 > 78.7 µM | SN12C > 100 µM | SW-620 > 100 µM | TK-10 23.3 µM
